How the values were obtained:
Type in all cases: toxicity, cell-based
U2OS = assay: Incucyte cell viability with U2OS; settings: human, 10 µM, compound concentration 10 uM
HEK-293T = assay: Incucyte cell viability with HEK293T; settings: human, 10 µM, compound concentration 10 uM
Fibroblast = assay: Incucyte cell viability with human fibroblast; settings: 10 µM, compound concentration 10 uM
Also: unitless GR value; below 1 slowed growth and below 0 cell loss.

## CC(C)(C[C@H]1CN(S(=O)(=O)c2cccc(C(F)(F)F)c2)c2cc(-c3cc(F)cc(OC(F)F)c3)ccc2O1)C(=O)O [CINTIRORGON]
U2OS; 0 h, replicate number 1
  Growth Rate: 0.78
U2OS; 12 h, replicate number 1
  Growth Rate: 0.81
U2OS; 18 h, replicate number 1
  Growth Rate: 0.78
HEK-293T; 0 h, replicate number 1
  Growth Rate: 1
HEK-293T; 0 h, replicate number 2
  Growth Rate: -0.41
HEK-293T; 6 h, replicate number 1
  Growth Rate: 0.88
HEK-293T; 6 h, replicate number 2
  Growth Rate: 0.81
HEK-293T; 12 h, replicate number 2
  Growth Rate: 0.88
HEK-293T; 18 h, replicate number 2
  Growth Rate: 0.9
Fibroblast; 0 h, replicate number 2
  Growth Rate: 0.71
Fibroblast; 6 h, replicate number 1
  Growth Rate: -0.68
Fibroblast; 6 h, replicate number 2
  Growth Rate: 0.8
Fibroblast; 12 h, replicate number 1
  Growth Rate: 0.59
Fibroblast; 12 h, replicate number 2
  Growth Rate: 0.54
Fibroblast; 18 h, replicate number 1
  Growth Rate: 0.49
Fibroblast; 18 h, replicate number 2
  Growth Rate: 0.81
Fibroblast; 24 h, replicate number 1
  Growth Rate: 0.29
Fibroblast; 24 h, replicate number 2
  Growth Rate: 0.69

## CCC(=O)O[C@]1(C(=O)CCl)[C@@H](C)C[C@H]2[C@@H]3CCC4=CC(=O)C=C[C@]4(C)[C@@]3(F)[C@@H](O)C[C@@]21C [CLOBETASOL PROPIONATE]
U2OS; 0 h, replicate number 2
  Growth Rate: -0.24
U2OS; 6 h, replicate number 1
  Growth Rate: -0.15
U2OS; 6 h, replicate number 2
  Growth Rate: 0.94
U2OS; 12 h, replicate number 1
  Growth Rate: 0.77
U2OS; 12 h, replicate number 2
  Growth Rate: 0.76
U2OS; 18 h, replicate number 1
  Growth Rate: 0.92
U2OS; 18 h, replicate number 2
  Growth Rate: 0.88
U2OS; 24 h, replicate number 1
  Growth Rate: 0.83
HEK-293T; 6 h, replicate number 1
  Growth Rate: 0.7
HEK-293T; 6 h, replicate number 2
  Growth Rate: 1
Fibroblast; 6 h, replicate number 1
  Growth Rate: 0.53
Fibroblast; 12 h, replicate number 1
  Growth Rate: -1

## Cc1cc(C(C#N)c2ccc(Cl)cc2)c(Cl)cc1NC(=O)c1cc(I)cc(I)c1O (stereo not given) [CLOSANTEL]
U2OS; 0 h, replicate number 1
  Growth Rate: 0.36
U2OS; 0 h, replicate number 2
  Growth Rate: -1
U2OS; 6 h, replicate number 2
  Growth Rate: 0.91
U2OS; 12 h, replicate number 2
  Growth Rate: 0.94
U2OS; 18 h, replicate number 2
  Growth Rate: 0.87
U2OS; 24 h, replicate number 1
  Growth Rate: 0.98
U2OS; 24 h, replicate number 2
  Growth Rate: 0.99
HEK-293T; 0 h, replicate number 1
  Growth Rate: 0.61
HEK-293T; 0 h, replicate number 2
  Growth Rate: 0.76
HEK-293T; 6 h, replicate number 1
  Growth Rate: 0.13
HEK-293T; 6 h, replicate number 2
  Growth Rate: 0.49
HEK-293T; 12 h, replicate number 1
  Growth Rate: 0.27
HEK-293T; 12 h, replicate number 2
  Growth Rate: 0.84
HEK-293T; 18 h, replicate number 1
  Growth Rate: 0.5
HEK-293T; 18 h, replicate number 2
  Growth Rate: 0.87
HEK-293T; 24 h, replicate number 1
  Growth Rate: 0.89
HEK-293T; 24 h, replicate number 2
  Growth Rate: 0.91
Fibroblast; 0 h, replicate number 2
  Growth Rate: -0.74
Fibroblast; 12 h, replicate number 1
  Growth Rate: -1

## Clc1ccccc1C(c1ccccc1)(c1ccccc1)n1ccnc1 [CLOTRIMAZOLE]
U2OS; 0 h, replicate number 2
  Growth Rate: 0.7
U2OS; 6 h, replicate number 2
  Growth Rate: 0.77
U2OS; 12 h, replicate number 1
  Growth Rate: 0.97
U2OS; 12 h, replicate number 2
  Growth Rate: 0.94
U2OS; 18 h, replicate number 2
  Growth Rate: 0.81
U2OS; 24 h, replicate number 2
  Growth Rate: 0.76
HEK-293T; 0 h, replicate number 1
  Growth Rate: 0.08
HEK-293T; 0 h, replicate number 2
  Growth Rate: -0.96
HEK-293T; 6 h, replicate number 2
  Growth Rate: 0.62
HEK-293T; 12 h, replicate number 2
  Growth Rate: 0.5
HEK-293T; 18 h, replicate number 1
  Growth Rate: 0.79
HEK-293T; 18 h, replicate number 2
  Growth Rate: 0.54
HEK-293T; 24 h, replicate number 1
  Growth Rate: 0.72
HEK-293T; 24 h, replicate number 2
  Growth Rate: 0.41
Fibroblast; 0 h, replicate number 1
  Growth Rate: 0.95
Fibroblast; 0 h, replicate number 2
  Growth Rate: 0.29
Fibroblast; 18 h, replicate number 1
  Growth Rate: 0.54
Fibroblast; 18 h, replicate number 2
  Growth Rate: 1
Fibroblast; 24 h, replicate number 1
  Growth Rate: 0.82

## COc1c(OCCCN2CCOCC2)ccc2c1N=C(NC(=O)c1cnc(N)nc1)N1CCN=C21 [COPANLISIB]
U2OS; 0 h, replicate number 1
  Growth Rate: -0.44
U2OS; 6 h, replicate number 1
  Growth Rate: 0.74
U2OS; 18 h, replicate number 1
  Growth Rate: 0.98
U2OS; 18 h, replicate number 2
  Growth Rate: 0.9
U2OS; 24 h, replicate number 1
  Growth Rate: 0.96
U2OS; 24 h, replicate number 2
  Growth Rate: 0.79
HEK-293T; 0 h, replicate number 2
  Growth Rate: -1
HEK-293T; 6 h, replicate number 1
  Growth Rate: 0.09
HEK-293T; 6 h, replicate number 2
  Growth Rate: -0.34
HEK-293T; 12 h, replicate number 1
  Growth Rate: 0.15
HEK-293T; 12 h, replicate number 2
  Growth Rate: -0.17
HEK-293T; 18 h, replicate number 1
  Growth Rate: 0.12
HEK-293T; 18 h, replicate number 2
  Growth Rate: -0.05
HEK-293T; 24 h, replicate number 1
  Growth Rate: 0.18
HEK-293T; 24 h, replicate number 2
  Growth Rate: -0.04
Fibroblast; 6 h, replicate number 1
  Growth Rate: -0.21
Fibroblast; 6 h, replicate number 2
  Growth Rate: -0.38
Fibroblast; 12 h, replicate number 1
  Growth Rate: 0.1
Fibroblast; 12 h, replicate number 2
  Growth Rate: -0.18
Fibroblast; 18 h, replicate number 1
  Growth Rate: 0.26
Fibroblast; 18 h, replicate number 2
  Growth Rate: 0.04
Fibroblast; 24 h, replicate number 1
  Growth Rate: 0.41
Fibroblast; 24 h, replicate number 2
  Growth Rate: 0.24

## O=c1cccc2n1C[C@@H]1CNC[C@H]2C1 [CYTISINICLINE]
U2OS; 12 h, replicate number 1
  Growth Rate: 0.79
U2OS; 12 h, replicate number 2
  Growth Rate: 0.94
U2OS; 18 h, replicate number 1
  Growth Rate: 0.97
U2OS; 18 h, replicate number 2
  Growth Rate: 0.99
U2OS; 24 h, replicate number 1
  Growth Rate: 0.99
HEK-293T; 6 h, replicate number 2
  Growth Rate: 0.9
HEK-293T; 12 h, replicate number 1
  Growth Rate: 0.46
HEK-293T; 12 h, replicate number 2
  Growth Rate: 0.75
HEK-293T; 18 h, replicate number 1
  Growth Rate: 0.79
HEK-293T; 18 h, replicate number 2
  Growth Rate: 0.92
HEK-293T; 24 h, replicate number 1
  Growth Rate: 0.88
HEK-293T; 24 h, replicate number 2
  Growth Rate: 0.99
Fibroblast; 6 h, replicate number 2
  Growth Rate: -0.4
Fibroblast; 12 h, replicate number 1
  Growth Rate: -0.82
Fibroblast; 12 h, replicate number 2
  Growth Rate: 0.99
Fibroblast; 18 h, replicate number 2
  Growth Rate: 0.88
Fibroblast; 24 h, replicate number 1
  Growth Rate: 0.51
Fibroblast; 24 h, replicate number 2
  Growth Rate: 0.81

## O=C(O)Cc1ccc(CCNS(=O)(=O)c2ccc(Cl)cc2)cc1 [DALTROBAN]
U2OS; 24 h, replicate number 1
  Growth Rate: 0.96
HEK-293T; 6 h, replicate number 1
  Growth Rate: 0.23
HEK-293T; 6 h, replicate number 2
  Growth Rate: 0.8
HEK-293T; 12 h, replicate number 1
  Growth Rate: 0.38
HEK-293T; 12 h, replicate number 2
  Growth Rate: 0.95
HEK-293T; 18 h, replicate number 1
  Growth Rate: 0.67
HEK-293T; 24 h, replicate number 1
  Growth Rate: 0.72
Fibroblast; 0 h, replicate number 2
  Growth Rate: -0.53
Fibroblast; 24 h, replicate number 1
  Growth Rate: 0.99

## CCn1cnc2c(-c3ccc(F)c(-c4ccc(S(=O)(=O)CC)cc4OC)c3)cnnc21 [DARIGABAT]
U2OS; 0 h, replicate number 2
  Growth Rate: -0.95
U2OS; 6 h, replicate number 1
  Growth Rate: -0.92
U2OS; 6 h, replicate number 2
  Growth Rate: -0.7
U2OS; 12 h, replicate number 1
  Growth Rate: -0.49
U2OS; 12 h, replicate number 2
  Growth Rate: -0.46
U2OS; 18 h, replicate number 1
  Growth Rate: -0.16
U2OS; 18 h, replicate number 2
  Growth Rate: -0.24
U2OS; 24 h, replicate number 1
  Growth Rate: 0.01
U2OS; 24 h, replicate number 2
  Growth Rate: -0.05
HEK-293T; 6 h, replicate number 1
  Growth Rate: -0.79
HEK-293T; 6 h, replicate number 2
  Growth Rate: -0.84
HEK-293T; 12 h, replicate number 1
  Growth Rate: -0.63
HEK-293T; 12 h, replicate number 2
  Growth Rate: -0.47
HEK-293T; 18 h, replicate number 1
  Growth Rate: -0.38
HEK-293T; 18 h, replicate number 2
  Growth Rate: -0.28
HEK-293T; 24 h, replicate number 1
  Growth Rate: -0.32
HEK-293T; 24 h, replicate number 2
  Growth Rate: -0.18
Fibroblast; 0 h, replicate number 1
  Growth Rate: -0.83
Fibroblast; 6 h, replicate number 2
  Growth Rate: -1
Fibroblast; 12 h, replicate number 1
  Growth Rate: 1
Fibroblast; 12 h, replicate number 2
  Growth Rate: -0.93
Fibroblast; 18 h, replicate number 1
  Growth Rate: -0.97
Fibroblast; 18 h, replicate number 2
  Growth Rate: -0.67
Fibroblast; 24 h, replicate number 1
  Growth Rate: -0.69
Fibroblast; 24 h, replicate number 2
  Growth Rate: -0.48

## Cn1c(C2(NC(=O)c3ccc4c(C5CCCC5)c(-c5ncc(Br)cn5)n(C)c4c3)CCC2)nc2ccc(/C=C/C(=O)[O-])cc21.[Na+] [DELEOBUVIR SODIUM]
U2OS; 12 h, replicate number 2
  Growth Rate: 0.79
U2OS; 18 h, replicate number 2
  Growth Rate: 0.92
U2OS; 24 h, replicate number 2
  Growth Rate: 0.93
HEK-293T; 0 h, replicate number 1
  Growth Rate: 0.69
HEK-293T; 0 h, replicate number 2
  Growth Rate: 0.32
HEK-293T; 18 h, replicate number 1
  Growth Rate: 0.92
HEK-293T; 18 h, replicate number 2
  Growth Rate: 0.81
HEK-293T; 24 h, replicate number 1
  Growth Rate: 0.94
HEK-293T; 24 h, replicate number 2
  Growth Rate: 0.8
Fibroblast; 0 h, replicate number 2
  Growth Rate: -0.22
Fibroblast; 6 h, replicate number 2
  Growth Rate: -0.13

## Cn1c(C2(NC(=O)c3ccc4c(C5CCCC5)c(-c5ncc(Br)cn5)n(C)c4c3)CCC2)nc2ccc(/C=C/C(=O)O)cc21 [DELEOBUVIR]
U2OS; 6 h, replicate number 1
  Growth Rate: 0.31
U2OS; 6 h, replicate number 2
  Growth Rate: 0.75
U2OS; 12 h, replicate number 1
  Growth Rate: 0.44
U2OS; 12 h, replicate number 2
  Growth Rate: 0.92
U2OS; 18 h, replicate number 1
  Growth Rate: 0.49
U2OS; 24 h, replicate number 1
  Growth Rate: 0.7
U2OS; 24 h, replicate number 2
  Growth Rate: 0.88
HEK-293T; 6 h, replicate number 2
  Growth Rate: 0.72
HEK-293T; 12 h, replicate number 2
  Growth Rate: 0.88
HEK-293T; 18 h, replicate number 1
  Growth Rate: 0.92
HEK-293T; 18 h, replicate number 2
  Growth Rate: 0.88
HEK-293T; 24 h, replicate number 1
  Growth Rate: 0.91
HEK-293T; 24 h, replicate number 2
  Growth Rate: 0.85
Fibroblast; 0 h, replicate number 1
  Growth Rate: -1
Fibroblast; 18 h, replicate number 1
  Growth Rate: 0.98
Fibroblast; 24 h, replicate number 1
  Growth Rate: 0.85
